# The supplement of paper PMC11208160
# Assay: recombinant UMI read abundance after kanamycin selection (control-corrected) (log10(CPM+1)); higher = more efficient recombination; extreme values may be limits of the assay; sequences stand for … in AGTGCAGAGAAAATCGGCCAGTTTTCTCTGCCTGCAGTCCGCATGCCGTGGGACCCCTTGGGTTCTAACCTGTTGCCTAGATTTATGCAGCGGACTGCCTTTCTCCCAAAGTGATAAACCGG…AGGTTGGTTTCACT; site = the 11-nt donor
# Outline: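 In a pooled Escherichia coli screen for the IS621 bridge recombinase, donor and donor-binding-loop pairs were each placed with a 12-nt UMI on a plasmid bearing a promoterless kanamycin gene. This library was co-electroporated with a target plasmid encoding a fixed target and T7-inducible recombinase, and cells were plated either on IPTG (0.07 mM) plus kanamycin or without selection, in two replicates each. Recombinant UMIs were PCR-amplified across the donor–target junction and sequenced, and counts were converted to CPM, averaged over replicates, scaled by control-derived factors and reported as log10(CPM+1).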
row,Sequence,recombinant UMI read abundance (log10)
1,CTGTAATCATGGACCGGTTTTCCCGGTAATCCGTATTTGTG (site CTGTAATCTCA),2.52
2,CTGTACACATGGACCGGTTTTCCCGGTAATCCGTATTTGCT (site CTATACACTAG),2.55
3,CTGTACACATGGACCGGTTTTCCCGGTAATCCGTATTTGCT (site CTCTACACTAG),1.52
4,CTGTACACATGGACCGGTTTTCCCGGTAATCCGTATTTGCT (site CTGTACACTAG),2.51
5,CTGTACACATGGACCGGTTTTCCCGGTAATCCGTATTTGCT (site CTTTACACTAG),0.828
6,CTGTACGCATGGACCGGTTTTCCCGGTAATCCGTATTTGTC (site CTGTACGCTGA),2.56
7,CTGTCGCCATGGACCGGTTTTCCCGGTAATCCGTATTTGCA (site CTGTCGCCTTG),0
8,CTGTCGTCATGGACCGGTTTTCCCGGTAATCCGTATTTGTG (site CTGTCGTCTCA),0.831
9,CTGTGACCATGGACCGGTTTTCCCGGTAATCCGTATTTGTA (site CTGTGACCTTA),0.00405
10,CTGTGCCCATGGACCGGTTTTCCCGGTAATCCGTATTTGAG (site CTGTGCCCTCT),0.0219
11,CTGTGCCCATGGACCGGTTTTCCCGGTAATCCGTATTTGCC (site CTGTGCCCTGG),1.34
12,CTGTTAGCATGGACCGGTTTTCCCGGTAATCCGTATTTGTG (site CAGTTAGCTCA),0.669
13,CTGTTAGCATGGACCGGTTTTCCCGGTAATCCGTATTTGTG (site CCGTTAGCTCA),0.102
14,CTGTTAGCATGGACCGGTTTTCCCGGTAATCCGTATTTGTG (site CGGTTAGCTCA),0.0126
15,CTGTTAGCATGGACCGGTTTTCCCGGTAATCCGTATTTGTG (site CTGTTAGCTCA),2.07
16,CTGTTCGCATGGACCGGTTTTCCCGGTAATCCGTATTTGTA (site CTGTTCGCTTA),2.09
17,CTGTTGCCATGGACCGGTTTTCCCGGTAATCCGTATTTGAC (site CTGTTGCCTGT),0
18,CTTAAAGCATGGACCGGTTTTCCCGGTAATCCGTATTTGAT (site CATAAAGCTAT),0
19,CTTAAAGCATGGACCGGTTTTCCCGGTAATCCGTATTTGAT (site CCTAAAGCTAT),0

row,Sequence,recombinant UMI read abundance (log10)
1,CTTAAAGCATGGACCGGTTTTCCCGGTAATCCGTATTTGAT (site CGTAAAGCTAT),0
2,CTTAAAGCATGGACCGGTTTTCCCGGTAATCCGTATTTGAT (site CTTAAAGCTAT),1.08
3,CTTAATACATGGACCGGTTTTCCCGGTAATCCGTATTTGGC (site CATAATACTGC),0.00796
4,CTTAATACATGGACCGGTTTTCCCGGTAATCCGTATTTGGC (site CCTAATACTGC),0
5,CTTAATACATGGACCGGTTTTCCCGGTAATCCGTATTTGGC (site CGTAATACTGC),0.0463
6,CTTAATACATGGACCGGTTTTCCCGGTAATCCGTATTTGGC (site CTTAATACTGC),0
7,CTTACGGCATGGACCGGTTTTCCCGGTAATCCGTATTTGAT (site CTTACGGCTAT),1.44
8,CTTACTACATGGACCGGTTTTCCCGGTAATCCGTATTTGGC (site CTTACTACTGC),0.688
9,CTTAGAACATGGACCGGTTTTCCCGGTAATCCGTATTTGGC (site ATTAGAACTGC),0
10,CTTAGAACATGGACCGGTTTTCCCGGTAATCCGTATTTGGC (site CTTAGAACTGC),1.4
11,CTTAGAACATGGACCGGTTTTCCCGGTAATCCGTATTTGGC (site GTTAGAACTGC),0.016
12,CTTAGAACATGGACCGGTTTTCCCGGTAATCCGTATTTGGC (site TTTAGAACTGC),0
13,CTTCAATCATGGACCGGTTTTCCCGGTAATCCGTATTTGGA (site CTTCAATCTTC),1.71
14,CTTCACTCATGGACCGGTTTTCCCGGTAATCCGTATTTGTA (site CTTCACTCTTA),1.73
15,CTTCACTCATGGACCGGTTTTCCCGGTAATCCGTATTTGTA (site CTTCCCTCTTA),0.00659
16,CTTCACTCATGGACCGGTTTTCCCGGTAATCCGTATTTGTA (site CTTCGCTCTTA),0.00683
17,CTTCACTCATGGACCGGTTTTCCCGGTAATCCGTATTTGTA (site CTTCTCTCTTA),0
18,CTTCAGTCATGGACCGGTTTTCCCGGTAATCCGTATTTGGC (site CTTCAGTCTGC),0.339
19,CTTCATACATGGACCGGTTTTCCCGGTAATCCGTATTTGTT (site CTTCATACTAA),1.32

row,Sequence,recombinant UMI read abundance (log10)
1,CTTCCCTCATGGACCGGTTTTCCCGGTAATCCGTATTTGTG (site CTTCCCTCTCA),0.257
2,CTTCCTACATGGACCGGTTTTCCCGGTAATCCGTATTTGTA (site CTTCCTACTTA),0.451
3,CTTCGCACATGGACCGGTTTTCCCGGTAATCCGTATTTGAA (site CTTCGCACTTT),0.375
4,CTTCTCTCATGGACCGGTTTTCCCGGTAATCCGTATTTGTA (site ATTCTCTCTTA),0.402
5,CTTCTCTCATGGACCGGTTTTCCCGGTAATCCGTATTTGTA (site CATCTCTCTTA),0.954
6,CTTCTCTCATGGACCGGTTTTCCCGGTAATCCGTATTTGTA (site CCTCTCTCTTA),0.823
7,CTTCTCTCATGGACCGGTTTTCCCGGTAATCCGTATTTGTA (site CGTCTCTCTTA),1.35
8,CTTCTCTCATGGACCGGTTTTCCCGGTAATCCGTATTTGTA (site CTACTCTCTTA),0.967
9,CTTCTCTCATGGACCGGTTTTCCCGGTAATCCGTATTTGTA (site CTCCTCTCTTA),1.89
10,CTTCTCTCATGGACCGGTTTTCCCGGTAATCCGTATTTGTA (site CTGCTCTCTTA),0.693
11,CTTCTCTCATGGACCGGTTTTCCCGGTAATCCGTATTTGTA (site CTTATCTCTTA),0.00276
12,CTTCTCTCATGGACCGGTTTTCCCGGTAATCCGTATTTGTA (site CTTCACTCTTA),0
13,CTTCTCTCATGGACCGGTTTTCCCGGTAATCCGTATTTGTA (site CTTCCCTCTTA),0.181
14,CTTCTCTCATGGACCGGTTTTCCCGGTAATCCGTATTTGTA (site CTTCGCTCTTA),0.00811
15,CTTCTCTCATGGACCGGTTTTCCCGGTAATCCGTATTTGTA (site CTTCTATCTTA),0.394
16,CTTCTCTCATGGACCGGTTTTCCCGGTAATCCGTATTTGTA (site CTTCTCACTTA),0.0108
17,CTTCTCTCATGGACCGGTTTTCCCGGTAATCCGTATTTGTA (site CTTCTCCCTTA),0.207
18,CTTCTCTCATGGACCGGTTTTCCCGGTAATCCGTATTTGTA (site CTTCTCGCTTA),0.0131
19,CTTCTCTCATGGACCGGTTTTCCCGGTAATCCGTATTTGTA (site CTTCTCTCTAA),0.394
